Data on 38 molecules can be found in patent US7115600B2, “Histamine-3 receptor modulators” (Pfizer Inc., priority 2004, dated 2006).

Each structure is given as a SMILES string.

T1 sequence (Q9QYN8 whole entry): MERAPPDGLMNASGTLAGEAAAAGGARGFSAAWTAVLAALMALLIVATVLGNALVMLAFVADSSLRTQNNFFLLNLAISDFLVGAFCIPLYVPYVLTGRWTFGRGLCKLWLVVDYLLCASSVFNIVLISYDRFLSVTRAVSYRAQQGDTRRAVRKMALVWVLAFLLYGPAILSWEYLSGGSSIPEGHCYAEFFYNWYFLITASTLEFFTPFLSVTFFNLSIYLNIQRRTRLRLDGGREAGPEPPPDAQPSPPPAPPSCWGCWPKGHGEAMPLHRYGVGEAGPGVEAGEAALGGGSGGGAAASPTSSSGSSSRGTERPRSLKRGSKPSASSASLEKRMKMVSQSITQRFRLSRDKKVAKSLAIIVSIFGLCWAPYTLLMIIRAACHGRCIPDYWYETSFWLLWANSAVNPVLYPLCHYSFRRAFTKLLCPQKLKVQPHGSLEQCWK

The test addresses T1, rat histamine H3 receptors (Rattus norvegicus, UniProt Q9QYN8).
T1 construct: Frozen rat frontal brain or frozen human post-mortem frontal brain is homogenized; from tissue; host or cells: rat frontal brain membranes
Briefly: Rat Histamine H3 Receptor Binding. The note with it: frozen rat frontal brain membranes; radioligand 1 nM 3H-N-methyl-histamine; 1 hour incubation; read-out: rH3 Ki.
Description: The in vitro affinity of the compounds in the present invention at the rat or human histamine H3 receptors can be determined according to the following procedure. Frozen rat frontal brain or frozen human post-mortem frontal brain is homogenized in 20 volumes of cold 50 mM Tris HCl containing 2 mM MgCl2 (pH to 7.4 at 4 degrees C.). The homogenate is then centrifuged at 45,000 G for 10 minutes. The supernatant is decanted and the membrane pellet resuspended by Polytron in cold 50 mM Tris HCl containing 2 mM MgCl2 (pH to 7.4 at 4 degrees C.) and centrifuged again. The final pellet is resuspended in 50 mM Tris HCl containing 2 mM MgCl2 (pH to 7.4 at 25 degrees C.) at a concentration of 12 mg/mL. Dilutions of compounds are made in 10% DMSO/50 mM Tris buffer (pH 7.4) (at 10× final concentration, so that the final DMSO concentration is 1%). Incubations are initiated by the addition of membranes (200 microliters) to 96 well V-bottom polypropylene plates containing 25 microliters of drug dilutions and 25 microliters of radioligand (1 nM final concentration 3H—N-methyl-histamine). After a 1 hour incubation, assay samples are rapidly filtered through Whatman GF/B filters and rinsed with ice-cold 50 nM Tris buffer (pH 7.4) using a Skatron cell harvester. Radioactivity is quantified using a BetaPlate scintillation counter. The percent inhibition of specific binding can then be calculated.
Regarding `Cc1cnc(OC[C@H]2C[C@@H](c3ccc(CN4CCCC4)cc3)C2)nc1C1CCCNC1` (relative stereo) [Example 59, cis-5-Methyl-4-piperidin-3-yl-2-[3-(4-pyrrolidin-1-ylmethyl-phenyl)-cyclobutylmethoxy]-pyrimidine], the Ki is 26.2 nM.

As to `c1cc(C2CCNC2)nc(OC[C@H]2C[C@@H](c3ccc(CN4CCCC4)cc3)C2)n1` (relative stereo) [Example 65, cis-4-Pyrrolidin-3-yl-2-[3-(4-pyrrolidin-1-ylmethyl-phenyl)-cyclobutylmethoxy]-pyrimidine], the Ki was found to be 7.28 nM.

As to `Cc1cc(C2CCNC2)nc(OC[C@H]2C[C@@H](c3ccc(CN4CCCC4)cc3)C2)n1` (relative stereo) [Example 66, cis-4-Methyl-6-pyrrolidin-3-yl-2-[3-(4-pyrrolidin-1-ylmethyl-phenyl)-cyclobutylmethoxy]-pyrimidine], the Ki was 4.75 nM.

Take `Cc1cnc(OC[C@H]2C[C@@H](c3ccc(CN4CCCC4)cc3)C2)nc1C1CCNC1` (relative stereo) [Example 88, cis-5-Methyl-4-pyrrolidin-3-yl-2-[3-(4-pyrrolidin-1-ylmethyl-phenyl)-cyclobutylmethoxy]-pyrimidine]: the Ki was found to be 3.79 nM.

As to `c1ccc(C2CCCN2C[C@H]2C[C@@H](c3ccc(CN4CCCC4)cc3)C2)nc1` (relative stereo) [Example 105, cis-2-{1-[3-(4-Pyrrolidin-1-ylmethyl-phenyl)-cyclobutylmethyl]-pyrrolidin-2-yl}-pyridine], the Ki is 5.38 nM.

As for `c1ccc(C2CCCN2C[C@H]2C[C@H](c3ccc(CN4CCCC4)cc3)C2)nc1` (relative stereo) [Example 109, trans-2-{1-[3-(4-Pyrrolidin-1-ylmethyl-phenyl)-cyclobutylmethyl]-pyrrolidin-2-yl}-pyridine], the Ki turned out to be 2.55 nM.

As for `CC1CCCCN1C[C@H]1C[C@H](c2ccc(CN3CCCC3)cc2)C1` (relative stereo) [Example 117, trans-2-Methyl-1-[3-(4-pyrrolidin-1-ylmethyl-phenyl)-cyclobutylmethyl]-piperidine], the inhibitory constant (Ki) was found to be 0.73 nM.

Consider `CC1CCCN(C[C@H]2C[C@H](c3ccc(CN4CCCC4)cc3)C2)C1` (relative stereo) [Example 118, trans-3-Methyl-1-[3-(4-pyrrolidin-1-ylmethyl-phenyl)-cyclobutylmethyl]-piperidine], for which the Ki was 0.65 nM.

With `CC1CCCN1C[C@H]1C[C@H](c2ccc(CN3CCCC3)cc2)C1` (relative stereo) [Example 120, trans-2-Methyl-1-[3-(4-pyrrolidin-1-ylmethyl-phenyl)-cyclobutylmethyl]-pyrrolidine], the Ki was found to be 3.35 nM.

For the molecule `OC1(c2ccc(CN3CCCC3)cc2)CC(COCc2ccccc2)C1` (centres unmarked) [Example 1, 3-Benzyloxymethyl-1-(4-pyrrolidin-1-ylmethyl-phenyl)-cyclobutanol], the Ki was found to be 8.34 nM.

In the case of `c1ccc(COCC2CC(c3ccc(CN4CCCC4)cc3)C2)cc1` (centres unmarked) [Example 2, 1-[4-(3-Benzyloxymethyl-cyclobutyl)-benzyl]-pyrrolidine], the Ki was 98.8 nM.

As for `Cc1ccc(S(=O)(=O)OCC2CC(c3ccc(CN4CCCC4)cc3)C2)cc1` (centres unmarked) [Example 4, Toluene-4-sulfonic acid 3-(4-pyrrolidin-1-ylmethyl-phenyl)-cyclobutylmethyl ester], the Ki amounted to 5.65 nM.

In the case of `N#Cc1cccc(COCC2CC(c3ccc(CN4CCCC4)cc3)C2)c1` (centres unmarked) [Example 5, 3-[3-(4-Pyrrolidin-1-ylmethyl-phenyl)-cyclobutylmethoxymethyl]-benzonitrile], the Ki amounted to 89.2 nM.

As to `N#Cc1ccccc1COCC1CC(c2ccc(CN3CCCC3)cc2)C1` (centres unmarked) [Example 6, 2-[3-(4-Pyrrolidin-1-ylmethyl-phenyl)-cyclobutylmethoxymethyl]-benzonitrile], the inhibition constant (Ki) is 122 nM.

Regarding `N#Cc1ccc(COCC2CC(c3ccc(CN4CCCC4)cc3)C2)cc1` (centres unmarked) [Example 7, 4-[3-(4-Pyrrolidin-1-ylmethyl-phenyl)-cyclobutylmethoxymethyl]-benzonitrile], the Ki is 99.2 nM.

As for `Fc1cc(F)cc(COCC2CC(c3ccc(CN4CCCC4)cc3)C2)c1` (centres unmarked) [Example 14, 1-(4-{-3-[(3,5-Difluoro-phenyl)methoxymethyl]-cyclobutyl}-benzyl)-pyrrolidine], the Ki was found to be 79.4 nM.

Consider `Cc1ccc(COCC2CC(c3ccc(CN4CCCC4)cc3)C2)cc1` (centres unmarked) [Example 27, 1-{4-[3-(4-Methyl-benzyloxymethyl)-cyclobutyl]-benzyl}-pyrrolidine], for which the Ki is 74.2 nM.

With `c1cnc(OCC2CC(c3ccc(CN4CCCC4)cc3)C2)cn1` (centres unmarked) [Example 40, 2-[3-(4-Pyrrolidin-1-ylmethyl-phenyl)-cyclobutylmethoxy]-pyrazine], the Ki was 74.3 nM.

In the case of `Cc1cnc(C)c(OCC2CC(c3ccc(CN4CCCC4)cc3)C2)n1` (centres unmarked) [Example 41, 2,5-Dimethyl-3-[3-(4-pyrrolidin-1-ylmethyl-phenyl)-cyclobutylmethoxy]-pyrazine], the Ki amounted to 32 nM.

Regarding `c1ccc(OCC2CC(c3ccc(CN4CCCC4)cc3)C2)nc1` (centres unmarked) [Example 42, 2-[3-(4-Pyrrolidin-1-ylmethyl-phenyl)-cyclobutylmethoxy]-pyridine], the Ki is 131 nM.

For the molecule `COc1ccc(OCC2CC(c3ccc(CN4CCCC4)cc3)C2)nn1` (centres unmarked) [Example 44, 3-Methoxy-6-[3-(4-pyrrolidin-1-ylmethyl-phenyl)-cyclobutylmethoxy]-pyridazine], the Ki worked out at 44.4 nM.

Take `COc1cc(OCC2CC(c3ccc(CN4CCCC4)cc3)C2)nc(OC)n1` (centres unmarked) [Example 46, 2,4-Dimethoxy-6-[3-(4-pyrrolidin-1-ylmethyl-phenyl)-cyclobutylmethoxy]-pyrimidine]: the Ki came to 104 nM.

As for `Cc1ccc(S(=O)(=O)OC[C@H]2C[C@@H](c3ccc(CN4CCCC4)cc3)C2)cc1` [Example 47, cis-Toluene-4-sulfonic acid 3-(4-pyrrolidin-1-ylmethyl-phenyl)-cyclobutylmethyl ester], the Ki was 23.2 nM.

Turning to `Cc1ccc(S(=O)(=O)OC[C@H]2C[C@H](c3ccc(CN4CCCC4)cc3)C2)cc1` [Example 48, trans-Toluene-4-sulfonic acid 3-(4-pyrrolidin-1-ylmethyl-phenyl)-cyclobutylmethyl ester], the Ki was found to be 98 nM.

As for `Cc1cc(C)nc(OC[C@H]2C[C@H](c3ccc(CN4CCCC4)cc3)C2)n1` [Example 55, trans-4,6-Dimethyl-2-[3-(4-pyrrolidin-1-ylmethyl-phenyl)-cyclobutylmethoxy]-pyrimidine], the Ki is 92.6 nM.

Turning to `CCc1cnc(OC[C@H]2C[C@H](c3ccc(CN4CCCC4)cc3)C2)nc1` [Example 57, trans-5-Ethyl-2-[3-(4-pyrrolidin-1-ylmethyl-phenyl)-cyclobutylmethoxy]-pyrimidine], the Ki came to 101 nM.

Take `Fc1cnc(OCC2CC(c3ccc(CN4CCCC4)cc3)C2)nc1C1CCNCC1` (centres unmarked) [Example 74, 5-Fluoro-4-piperidin-4-yl-2-[3-(4-pyrrolidin-1-ylmethyl-phenyl)-cyclobutylmethoxy]-pyrimidine]: the Ki was determined as 12.5 nM.

For `FC(F)(F)c1cc(-c2ccccc2)nc(OC[C@H]2C[C@@H](c3ccc(CN4CCCC4)cc3)C2)n1` [Example 76, cis-4-Phenyl-2-{[3-(4-pyrrolidin-1-ylmethyl-phenyl)-cyclobutylmethyl]oxy}-6-trifluoromethyl-pyrimidine], the Ki was found to be 1.89 nM.

For the molecule `Cc1cc(C2CCNCC2)nc(OC[C@H]2C[C@@H](c3ccc(CN4CCCC4)cc3)C2)n1` [Example 77, cis-4-Methyl-6-piperidin-4-yl-2-[3-(4-pyrrolidin-1-ylmethyl-phenyl)-cyclobutylmethoxy]-pyrimidine], the Ki was determined as 42.5 nM.

Turning to `Cc1nnc(OC[C@H]2C[C@@H](c3ccc(CN4CCCC4)cc3)C2)c2ccccc12` [Example 78, cis-1-Methyl-4-[3-(4-pyrrolidin-1-ylmethyl-phenyl)-cyclobutylmethoxy]-phthalazine], the Ki was found to be 110 nM.

In the case of `Cc1cnc(OC[C@H]2C[C@@H](c3ccc(CN4CCCC4)cc3)C2)nc1C1CCNCC1` [Example 81, cis-5-Methyl-4-piperidin-4-yl-2-[3-(4-pyrrolidin-1-ylmethyl-phenyl)-cyclobutylmethoxy]-pyrimidine], the Ki worked out at 58 nM.

Turning to `Cc1cc(C(=O)Nc2ccccc2)nc(OC[C@H]2C[C@@H](c3ccc(CN4CCCC4)cc3)C2)n1` [Example 83, cis-6-Methyl-2[3-(4-pyrrolidin-1-ylmethyl-phenyl)-cyclobutylmethoxy]-pyrimidine-4-carboxylic acid phenylamide], the Ki stood at 68.8 nM.

For the molecule `Cc1ccc(C)n1-c1ccc(OC[C@H]2C[C@@H](c3ccc(CN4CCCC4)cc3)C2)nn1` [Example 90, cis-3-(2,5-Dimethyl-pyrrol-1-yl)-6-{[3-(4-pyrrolidin-1-ylmethyl-phenyl)-cyclobutylmethyl]oxy}-pyridazine], the Ki came out at 33.6 nM.

On to `COc1ccc(-c2cnc(OC[C@H]3C[C@@H](c4ccc(CN5CCCC5)cc4)C3)nc2)cc1` [Example 92, cis-5-(4-Methoxy-phenyl)-2-[3-(4-pyrrolidin-1-ylmethyl-phenyl)-cyclobutylmethoxy]-pyrimidine], for which the Ki worked out at 118 nM.

In the case of `c1cc([C@H]2C[C@@H](CN3CCNCC3)C2)ccc1CN1CCCC1` [Example 101, cis-1-[3-(4-Pyrrolidin-1-ylmethyl-phenyl)-cyclobutylmethyl]-piperazine], the Ki came to 4.81 nM.

For `Fc1cnc(N2CCN(C[C@H]3C[C@@H](c4ccc(CN5CCCC5)cc4)C3)CC2)nc1` [Example 102, cis-5-Fluoro-2-{4-[3-(4-pyrrolidin-1-ylmethyl-phenyl)-cyclobutylmethyl]-piperazin-1-yl}-pyrimidine], the Ki is 1.83 nM.

Turning to `c1cc([C@H]2C[C@@H](CN3CCCC3)C2)ccc1CN1CCCC1` [Example 103, cis-1-[3-(4-Pyrrolidin-1-ylmethyl-phenyl)-cyclobutylmethyl]-pyrrolidine], the inhibitory constant (Ki) worked out at 3.93 nM.

For `c1cc([C@H]2C[C@@H](CN3CCCCC3)C2)ccc1CN1CCCC1` [Example 104, cis-1-[3-(4-Pyrrolidin-1-ylmethyl-phenyl)-cyclobutylmethyl]-piperidine], the Ki worked out at 2.78 nM.
